From PubChem BioAssay AID330 (DTP/NCI, 2004)
Where “and” joins values, the source holds several entries; their conditions need not be identical. Equal values may be shown once. Inconclusive results and toxic doses are left out. Peptide text beside a SMILES is read from it.

Test system: P388 leukemia ip, CD2F1 mice, survival T/C
Assay: NCI In Vivo Anticancer Drug Screen. Data for tumor model P388 Leukemia (intraperitoneal) in CD2F1 (CDF1) mice
Details: endpoint: median survival time, higher = longer survival
How it was run: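 Mice carrying the transplanted tumor received test compound or vehicle. Survival was recorded in each group, and the value is the treated-group measurement divided by that of the vehicle-treated control group.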

[1] = dose: 100.0 mg/kg/injection, schedule: Q04DX002 (ip), vehicle: saline
[2] = dose: 200.0 mg/kg/injection, schedule: Q04DX002 (ip), vehicle: saline
[3] = dose: 400.0 mg/kg/injection, schedule: Q04DX002 (ip), vehicle: saline
[4] = dose: 50.0 mg/kg/injection, schedule: Q01DX005 (ip), vehicle: Klucel (hydroxypropylcellulose) (HPC)
[5] = dose: 100.0 mg/kg/injection, schedule: Q01DX005 (ip), vehicle: Klucel (hydroxypropylcellulose) (HPC)
[6] = dose: 200.0 mg/kg/injection, schedule: Q01DX005 (ip), vehicle: Klucel (hydroxypropylcellulose) (HPC)
[7] = dose: 50.0 mg/kg/injection, schedule: Q04DX003 (ip), vehicle: saline with Tween-80
[8] = dose: 100.0 mg/kg/injection, schedule: Q04DX003 (ip), vehicle: saline with Tween-80
[9] = dose: 200.0 mg/kg/injection, schedule: Q04DX003 (ip), vehicle: saline with Tween-80
[10] = dose: 400.0 mg/kg/injection, schedule: Q04DX003 (ip), vehicle: saline with Tween-80
[11] = dose: 25.0 mg/kg/injection, schedule: Q01DX009 (ip), vehicle: saline
[12] = dose: 12.5 mg/kg/injection, schedule: Q01DX009 (ip), vehicle: saline with Tween-80
[13] = dose: 25.0 mg/kg/injection, schedule: Q01DX009 (ip), vehicle: saline with Tween-80
[14] = dose: 50.0 mg/kg/injection, schedule: Q01DX009 (ip), vehicle: saline with Tween-80

[N-]=[N+]=Nc1nnc(-c2ccccc2)c(=O)[nH]1
T/C [1]: 101 % of control | T/C [2]: 101 % of control | T/C [3]: 96 % of control

O=C(NNC(=S)NC1OCC(O)C(O)C1O)c1ccco1 (stereo unspecified)
T/C [4]: 99 % of control and 102 % of control | T/C [5]: 100 % of control and 102 % of control | T/C [6]: 104 % of control and 106 % of control | T/C (dose: 400.0 mg/kg/injection, schedule: Q01DX005 (ip), vehicle: Klucel (hydroxypropylcellulose) (HPC)): 98 % of control

CC(=O)OC(COS(C)(=O)=O)C(OC(C)=O)C(OC(C)=O)C(COS(C)(=O)=O)OC(C)=O (stereo unspecified)
T/C (dose: 100.0 mg/kg/injection, schedule: Q01DX001 (ip), vehicle: Klucel (hydroxypropylcellulose) (HPC)): 108 % of control | T/C (dose: 200.0 mg/kg/injection, schedule: Q01DX001 (ip), vehicle: Klucel (hydroxypropylcellulose) (HPC)): 100 % of control | T/C (dose: 400.0 mg/kg/injection, schedule: Q01DX001 (ip), vehicle: Klucel (hydroxypropylcellulose) (HPC)): 117 % of control

CC12CCC3(CC(=O)C1CCC2O)OCCO3 (stereo unspecified)
T/C (dose: 50.0 mg/kg/injection, schedule: Q01DX009 (ip), vehicle: Klucel (hydroxypropylcellulose) (HPC)): 107 % of control | T/C (dose: 100.0 mg/kg/injection, schedule: Q01DX009 (ip), vehicle: Klucel (hydroxypropylcellulose) (HPC)): 103 % of control | T/C (dose: 200.0 mg/kg/injection, schedule: Q01DX009 (ip), vehicle: Klucel (hydroxypropylcellulose) (HPC)): 116 % of control

CCC(=O)N(C)[C@@H](C)C(=O)O[C@H]1CC(=O)N(C)c2cc(cc(OC)c2Cl)C/C(C)=C/C=C[C@@H](OC)[C@@]2(O)C[C@H](OC(=O)N2)[C@@H](C)[C@@H]2O[C@@]12C
T/C (dose: 0.1 micrograms/kg/injection, schedule: Q01DX009 (ip), vehicle: saline): 105 % of control | T/C (dose: 0.2 micrograms/kg/injection, schedule: Q01DX009 (ip), vehicle: saline): 123 % of control | T/C (dose: 3.1 micrograms/kg/injection, schedule: Q01DX009 (ip), vehicle: saline + alcohol): 160 % of control | T/C (dose: 3.1 micrograms/kg/injection, schedule: Q01DX009 (ip), vehicle: saline): 150 % of control | T/C (dose: 6.3 micrograms/kg/injection, schedule: Q01DX009 (ip), vehicle: saline + alcohol): 151 % of control | T/C (dose: 6.3 micrograms/kg/injection, schedule: Q01DX009 (ip), vehicle: saline): 161 % of control

O=C1CC(=O)N2CCSC2=N1
T/C [7]: 102 % of control | T/C [8]: 101 % of control | T/C [9]: 102 % of control | T/C [10]: 98 % of control

Nc1nc(N)c2nnn(C3OC(CO)C(O)C3O)c2n1 (stereo unspecified)
T/C (dose: 3.0 mg/kg/injection, schedule: Q01DX009 (ip), vehicle: saline): 119 % of control | T/C (dose: 12.0 mg/kg/injection, schedule: Q01DX009 (ip), vehicle: saline): 115 % of control | T/C (dose: 12.5 mg/kg/injection, schedule: Q01DX009 (ip), vehicle: saline): 122 % of control | T/C [11]: 105 % of control | T/C (dose: 50.0 mg/kg/injection, schedule: Q01DX009 (ip), vehicle: saline): 96 % of control and 105 % of control

Cc1ccc(N=C(SSC(Cl)(Cl)Cl)SSC(Cl)(Cl)Cl)cc1
T/C (dose: 6.25 mg/kg/injection, schedule: Q01DX009 (ip), vehicle: saline with Tween-80): 91 % of control | T/C [12]: 99 % of control | T/C [13]: 100 % of control | T/C (dose: 50.0 mg/kg/injection, schedule: Q01DX009 (ip), vehicle: saline + alcohol): 104 % of control | T/C [14]: 101 % of control

CCOC(=O)[C]1([Bi]([CH3])[CH3])N=NC(C(=O)OC)=C1C(=O)OC (stereo unspecified)
T/C (dose: 25.0 mg/kg/injection, schedule: Q04DX003 (ip), vehicle: saline): 93 % of control | T/C (dose: 50.0 mg/kg/injection, schedule: Q04DX003 (ip), vehicle: saline): 97 % of control | T/C [8]: 99 % of control

NC(Cc1ccccc1)C(=O)NCC(=O)NC(Cc1ccccc1)C(=O)NCC(=O)O (stereo unspecified) (H-FGFG-OH; configuration not given here)
T/C [4]: 96 % of control | T/C [5]: 98 % of control | T/C [6]: 102 % of control

O=C1C(=Cc2cc(Cl)c(O)c(Cl)c2)C(=O)c2ccccc21
T/C [1]: 97 % of control | T/C [2]: 86 % of control | T/C [3]: 88 % of control

CCOc1ccc(C(CC(=O)O)CC(=O)N(CCCl)CCCl)cc1 (stereo unspecified)
T/C (dose: 100.0 mg/kg/injection, schedule: Q04DX003 (ip), vehicle: suspension in saline): 101 % of control | T/C (dose: 200.0 mg/kg/injection, schedule: Q04DX003 (ip), vehicle: suspension in saline): 102 % of control | T/C (dose: 400.0 mg/kg/injection, schedule: Q04DX003 (ip), vehicle: suspension in saline): 105 % of control

CN(CN1C(=O)CCC1=O)CN1C(=O)CCC1=O
T/C (dose: 30.0 mg/kg/injection, schedule: Q01DX005 (ip), vehicle: saline): 106 % of control | T/C (dose: 60.0 mg/kg/injection, schedule: Q01DX005 (ip), vehicle: saline): 106 % of control and 110 % of control | T/C (dose: 120.0 mg/kg/injection, schedule: Q01DX005 (ip), vehicle: saline): 108 % of control | T/C (dose: 240.0 mg/kg/injection, schedule: Q01DX005 (ip), vehicle: saline): 119 % of control

CCOC(=O)Nc1cc(NC(=O)OCC)cc([N+](=O)[O-])c1
T/C [8]: 100 % of control | T/C [9]: 104 % of control | T/C [10]: 90 % of control

CCOC(=O)C12CCOC1(OC)NC(=O)C=C2C(=O)OC (stereo unspecified)
T/C (dose: 100.0 mg/kg/injection, schedule: Q04DX003 (ip), vehicle: Klucel (hydroxypropylcellulose) (HPC)): 110 % of control | T/C (dose: 200.0 mg/kg/injection, schedule: Q04DX003 (ip), vehicle: Klucel (hydroxypropylcellulose) (HPC)): 110 % of control | T/C (dose: 400.0 mg/kg/injection, schedule: Q04DX003 (ip), vehicle: Klucel (hydroxypropylcellulose) (HPC)): 118 % of control

COc1cccc2c1C(=O)c1c(O)c3c(c(O)c1C2=O)CC(O)(C(=O)COC1CC(OC(C)=O)C(OC(C)=O)C(C)O1)CC3OC1CC(OC(C)=O)C(OC(C)=O)C(C)O1 (stereo unspecified)
T/C (dose: 3.13 mg/kg/injection, schedule: Q04DX003 (ip), vehicle: saline with Tween-80): 100 % of control | T/C (dose: 6.25 mg/kg/injection, schedule: Q04DX003 (ip), vehicle: saline with Tween-80): 100 % of control | T/C (dose: 12.5 mg/kg/injection, schedule: Q04DX003 (ip), vehicle: saline with Tween-80): 100 % of control | T/C (dose: 25.0 mg/kg/injection, schedule: Q04DX003 (ip), vehicle: saline with Tween-80): 95 % of control | T/C [7]: 100 % of control

C[C@H]1C[C@H]2[C@@H]3CC[C@](O)(C(=O)CO)[C@@]3(C)C[C@H](O)[C@]2(F)[C@@]2(C)C=CC(=O)C=C12
T/C [12]: 95 % of control | T/C [13]: 104 % of control | T/C [14]: 104 % of control | T/C [8]: 109 % of control | T/C [9]: 109 % of control | T/C [10]: 90 % of control

NC(=S)n1nc(-c2ccccc2)c(N=Nc2ccc(Cl)cc2Cl)c1-c1ccccc1
T/C (dose: 50.0 mg/kg/injection, schedule: Q01DX005 (ip), vehicle: saline with Tween-80): 94 % of control | T/C (dose: 100.0 mg/kg/injection, schedule: Q01DX005 (ip), vehicle: saline with Tween-80): 88 % of control | T/C (dose: 200.0 mg/kg/injection, schedule: Q01DX005 (ip), vehicle: saline with Tween-80): 96 % of control

O/N=C/c1cccc[n+]1Cc1ccccc1
T/C (dose: 1.56 mg/kg/injection, schedule: Q01DX009 (ip), vehicle: water): 102 % of control | T/C (dose: 3.13 mg/kg/injection, schedule: Q01DX009 (ip), vehicle: water): 101 % of control | T/C (dose: 6.25 mg/kg/injection, schedule: Q01DX009 (ip), vehicle: water): 102 % of control | T/C (dose: 12.5 mg/kg/injection, schedule: Q01DX009 (ip), vehicle: water): 102 % of control | T/C (dose: 25.0 mg/kg/injection, schedule: Q01DX009 (ip), vehicle: water): 107 % of control

OCCOc1ccc2ccccc2c1-c1c(OCCO)ccc2ccccc12
T/C [7]: 100 % of control | T/C [8]: 100 % of control | T/C [9]: 100 % of control | T/C [10]: 100 % of control

O=C(CC(=NCCN=C(CC(=O)c1ccccc1)c1ccccc1)c1ccccc1)c1ccccc1
T/C [14]: 112 % of control | T/C (dose: 100.0 mg/kg/injection, schedule: Q01DX009 (ip), vehicle: saline with Tween-80): 100 % of control | T/C (dose: 200.0 mg/kg/injection, schedule: Q01DX009 (ip), vehicle: saline with Tween-80): 100 % of control

Cc1cccc(N(CCOS(C)(=O)=O)CCOS(C)(=O)=O)c1
T/C (dose: 1.56 mg/kg/injection, schedule: Q01DX009 (ip), vehicle: saline): 95 % of control | T/C (dose: 3.12 mg/kg/injection, schedule: Q01DX009 (ip), vehicle: saline): 98 % of control | T/C (dose: 6.25 mg/kg/injection, schedule: Q01DX009 (ip), vehicle: saline): 100 % of control | T/C [12]: 87 % of control | T/C [11]: 102 % of control
